From patent publication US20090221624A1, “4-AMINOQUINOLINE COMPOUNDS FOR TREATING VIRUS-RELATED CONDITIONS” (priority 2005, published 2009)

How the values were obtained:
SINV (SR19-F-luc cells) = assay: SINV antiviral activity, SR19-F-luc cells, Firefly luciferase; assay type: cell-based; conditions: Sindbis virus; for inhibition at 25 µM: primary screening, 25 μM final concentration, 24 hours, percent inhibition of viral replication, read-out: SINV Inh; for EC50: secondary screening, SR19-F-luc cells
WNV (WN-hRuPac cells) = assay: WNV antiviral activity, WN-hRuPac cells, Renilla luciferase; assay type: cell-based, West Nile virus; conditions: for EC50 / inhibition at 25 µM: West Nile virus; for EC50: Secondary Data, WNV, read-out: WNV EC50; for inhibition at 25 µM: primary screening, 25 μM final concentration, 24 hours, percent inhibition of viral replication, read-out: WNV Inh; for WNV TI: therapeutic index CC50/EC50, WNV
RSV minigenome = assay: RSV minigenome-dependent β-galactosidase expression assay (RSV β-Gal); assay type: cell-based, respiratory syncytial virus; conditions: for EC50 / inhibition at 25 µM: human respiratory syncytial virus; for EC50: Secondary Data, RSV, read-out: RSV EC50; for inhibition at 25 µM: primary screening, 25 μM final concentration, 24 hours, percent inhibition of viral replication, read-out: RSV Inh; for RSV TI: therapeutic index CC50/EC50, RSV
DNG (D2-hRuPac cells) = assay: DNG antiviral activity, D2-hRuPac cells, Renilla luciferase; assay type: cell-based, Dengue fever virus; conditions: Dengue virus, secondary screening
EBOV minigenome = assay: microbe, parasite or virus in culture; assay type: cell-based, Ebola virus; conditions: Zaire ebolavirus; for inhibition at 25 µM: 24 h, read-out: EBOV Inh; for EC50: read-out: EBOV EC50
YFV (YF-hRuPac cells) = assay: microbe, parasite or virus in culture; assay type: cell-based, yellow fever virus; conditions: for inhibition at 25 µM / EC50: Yellow fever virus; for inhibition at 25 µM: 24 h, read-out: YFV Inh; for EC50: read-out: YFV EC50
[1] = tested on: HCV replicon (Clone A cells, Huh7, subgenomic hepatits C virus RNA); assay: HCV Neo screening assay (HCV replicon, NPTII ELISA); assay type: cell-based, hepatitis C virus; conditions: for EC50 / inhibition at 25 µM: Hepatitis C virus, Huh-7; for EC50: Secondary Data, HCV; for inhibition at 25 µM: primary screening, 25 μM final concentration, 24 hours, percent inhibition of viral replication, read-out: HCV Inh; for HCV TI: therapeutic index CC50/EC50, HCV

Row | Structure (SMILES) | inhibition at 25 µM (SINV (SR19-F-luc cells)) | EC50 (SINV (SR19-F-luc cells)) | EC50 (WNV (WN-hRuPac cells)) | inhibition at 25 µM (WNV (WN-hRuPac cells)) | WNV TI (WNV (WN-hRuPac cells)) | EC50 (RSV minigenome) | inhibition at 25 µM (RSV minigenome) | RSV TI (RSV minigenome) | EC50 (DNG (D2-hRuPac cells)) | inhibition at 25 µM (EBOV minigenome) | CC50 (in vitro; DNG CC50) | CC50 (in vitro; EBOV CC50) | CC50 (in vitro; RSV CC50) | CC50 (in vitro; SINV CC50) | CC50 (in vitro; WNV CC50) | CC50 (in vitro; YFV CC50) | YFV TI (YFV (YF-hRuPac cells)) | inhibition at 25 µM (YFV (YF-hRuPac cells)) | EC50 (YFV (YF-hRuPac cells)) | inhibition at 25 µM [1] | further results
1 | COC(=O)c1ccc2nc(C)cc(Nc3cccc(O)c3)c2c1 [Compound 73] | 80.8% | 5.99 µM | 25.8 µM | 31.5% | 2.8 | 28.9 µM | 63.1% | 2.5 | 16.8 µM | 62.1% | 72.3 µM | 72.3 µM | 72.3 µM | 72.3 µM | 72.3 µM | 72.3 µM | 1.79 | 51.8% | 40.3 µM | 89.5% | CC50 (in vitro; HCV CC50): 35.2 µM; EC50 [1]: 2.32 µM; HCV TI [1]: 15.17
2 | Cc1ccc2nc(C)cc(N3CCC(C)CC3)c2c1 [Compound 15] | 72% | 5.58 µM | ≥ 75 µM | 55.9% | 0.97 | 7.34 µM | 72.6% | 9.94 | 71.9 µM | 49.2% | 72.9 µM | 72.9 µM | 72.9 µM | 72.9 µM | 72.9 µM | 72.9 µM | 1.57 | 37.5% | 46.4 µM | 45.1% | EC50 (EBOV minigenome): 71.1 µM; CC50 (in vitro; HCV CC50): 35.7 µM
3 | c1ccc2cc(Nc3c4ccccc4nc4ccccc34)ccc2c1 [Compound 1] | 34.1% | 28.1 µM | 5.7 µM | 65.4% | 8.34 | 1.89 µM | 99.9% | 25.16 | 7.17 µM | 39.8% | 47.6 µM | 47.6 µM | 47.6 µM | 47.6 µM | 47.6 µM | 47.6 µM | 7.5 | 77.5% | 6.34 µM | 177% | EC50 (EBOV minigenome): 35.8 µM; CC50 (in vitro; HCV CC50): 3.83 µM; EC50 [1]: 6.52 µM; HCV TI [1]: 0.59
4 | CCOC(=O)c1cnc2ccc(OC)cc2c1NCc1ccco1 [Compound 29] | -33.8% | 43 µM | 3.36 µM | 105% | 6.58 | 0.29 µM | 96.2% | 76.21 | 7.43 µM | 86.4% | 22.1 µM | 22.1 µM | 22.1 µM | 22.1 µM | 22.1 µM | 22.1 µM | 5.97 | 98.4% | 3.7 µM | 35.3% | EC50 (EBOV minigenome): 8.75 µM; CC50 (in vitro; HCV CC50): ≥ 75 µM
5 | CCOc1ccc2nc(C)cc(Nc3cc(Cl)ccc3OC)c2c1 [Compound 58] | 92.8% | 4.2 µM | 3.8 µM | 91.5% | 4.91 | 2.34 µM | 99.8% | 7.98 | 6.91 µM | 80.2% | 18.7 µM | 18.7 µM | 18.7 µM | 18.7 µM | 18.7 µM | 18.7 µM | 7.04 | 96.6% | 2.65 µM | 137% | EC50 (EBOV minigenome): 4.94 µM; CC50 (in vitro; HCV CC50): 11.8 µM; EC50 [1]: 4.95 µM; HCV TI [1]: 2.38
6 | CCOC(=O)c1cnc2ccc(F)cc2c1NCCCN(C)C [Compound 66] | 14.9% | 9.53 µM | 22.9 µM | 40.8% | 2.82 | 44.8 µM | 17.6% | 1.44 | 51.4 µM | 84.1% | 64.6 µM | 64.6 µM | 64.6 µM | 64.6 µM | 64.6 µM | 64.6 µM | 0.86 | 11.4% | ≥ 75 µM | 39.6% | EC50 (EBOV minigenome): 14.1 µM
7 | CCOC(=O)c1ccc2ncc(C(=O)OCC)c(NCCCOC(=O)C(Cl)(Cl)Cl)c2c1 [Compound 64] | 26.1% | 34.1 µM | 8.9 µM | 37.2% | 6.8 | 22 µM | 84.9% | 2.75 | 4.19 µM | 90.1% | 60.5 µM | 60.5 µM | 60.5 µM | 60.5 µM | 60.5 µM | 60.5 µM | 1.32 | 25.8% | 45.9 µM | 43.4% | EC50 (EBOV minigenome): 15.5 µM
8 | Cc1cc(C)c2nc(C)cc(NCc3ccco3)c2c1 [Compound 54] | 47.8% | 38.3 µM | 6.91 µM | 84.4% | 7.26 | 5.8 µM | 87.9% | 8.66 | 21.9 µM | 38.4% | 50.2 µM | 50.2 µM | 50.2 µM | 50.2 µM | 50.2 µM | 50.2 µM | 12.13 | 91.1% | 4.14 µM | 101% | EC50 (EBOV minigenome): 75 µM; CC50 (in vitro; HCV CC50): 23.9 µM; EC50 [1]: 26 µM; HCV TI [1]: 0.92
9 | Cc1ccc2nc(C)cc(NCc3ccccc3)c2c1 [Compound 18] | 54.4% | 15.3 µM | 21.3 µM | 63.9% | 2.65 | 5.57 µM | 88.6% | 10.12 | 31.5 µM | -29.5% | 56.4 µM | 56.4 µM | 56.4 µM | 56.4 µM | 56.4 µM | 56.4 µM | 6.21 | 61.5% | 9.07 µM | 36.9% | –
